Results from patent US11834481B1, “Salty taste enhancing peptide derived from dry-cured ham and preparation method thereof” (Hefei University of Technology, priority 2022, dated 2023).

Experiment: sensory evaluation of purified components for salty taste enhancing effect
Conditions: components purified from Jinhua dry-cured ham crude peptides (Sephadex G-15, DEAE anion column); sensory evaluation with electronic tongue-assisted analysis
Description: The crude polypeptides obtained in S2 were dissolved in pure water, filtered by 0.22 μm of aqueous phase membrane, and then loaded onto a Sephadex G-15 gel filtration column (3.0×200 cm) for purification at 25° C. Specific chromatographic parameters: the sample mass concentration was 40 mg/mL; the injection volume was 200 μL; the eluent was 0.01 M of hydrochloric acid buffer solution at a flow rate of 0.5 mL/min, the primary UV ultraviolet detection wavelength was 214 nm, and the secondary UV ultraviolet detection wavelength was 250 nm. All purified components were subject to a sensory evaluation according to their respective chromatographic peaks. […]

Asp-Leu [Asp-Leu (DL)]
salty taste enhancing effect: optimal salty taste enhancing effect
